In article PMC11474028, “Lipopeptide antibiotics disrupt interactions of undecaprenyl phosphate with UptA” (Proceedings of the National Academy of Sciences of the …, 2024):
“Also recorded” adds a separate entry of the source.

Target: UptA (Bacillus subtilis, UniProt O31823)
Experiment: biochemical
Assay type: binding
Protocol: We explored the binding affinity of UptA toward C55-P by recording mass spectra for solutions containing 2.5 µM UptA and 0 to 40 µM C55-P in 200 mM ammonium acetate, 0.05% LDAO at pH 8.0. […] Further increase in the concentration of C55-P enhanced the intensity of the UptA:C55-P complex, together with the emergence of additional binding events (Fig. 2A). We deconvoluted the spectra ([34]) to extract mean relative intensities of bound and unbound forms of UptA in the spectral series.
To investigate the binding selectivity of UptA for monophosphate (C55-P) versus diphosphate (C55-PP) forms of the lipid carrier, we performed comparative binding assays. First, we recorded mass spectra for a mixture of UptA with increasing concentrations of C55-PP (SI Appendix, Fig. S3). […] We then fit the data to Hill equation to obtain an apparent Kd for this system.
UptA is a member of the DedA family of transporters whose cellular functions are potentially driven by proton-motive force and provide conditional fitness to bacteria under alkaline conditions ([25], [26], [36]). […] To this end, we equilibrated C55-P with UptA at a protein/ligand molar ratio of 1:4 in a buffer of the same composition but at pH 8.0 and 5.0. […] As a negative control, we tested for pH sensitivity of C55-P binding to MraY, the latter being the downstream enzyme in the peptidoglycan pathway that couples UM5 to C55-P. To this end, we equilibrated MraY and C55-P at a molar ratio of 1:4 in a buffer of pH 8.0 and pH 5.0.
Next, we investigated the chain length selectivity of UptA by testing its interaction with geranylgeranyl phosphate (C20-P), hexaprenyl phosphate (C30-P), and C55-P; the latter representing the native form of the lipid carrier in the model organisms B. subtilis and E. coli ([39]). For this experiment, we incubated 4 µM UptA with a 10-fold molar excess of C20-P, C30-P, and C55-P at pH 8.0 and recorded spectra under the same conditions. […] The length and stereochemistry of lipid tails can influence their interactions with membrane proteins ([40]).
Detailed experimental procedures are provided in SI Appendix. Briefly, UptA (wild type and mutants) was expressed in E. coli C43(DE3) cells (Lucigen) with GFP fusion on the C-terminus and solubilized from the membrane fraction by n-dodecyl-β-D-maltopyranoside (DDM). After purification by affinity chromatography, the GFP was cleaved by TEV protease and removed, and UptA was further purified by size-exclusion chromatography in a buffer containing 20 mM Tris-HCl (pH 8.0), 200 mM NaCl, 0.02% DDM. Before measurements, proteins were buffer-exchanged into 0.05% LDAO, 200 mM ammonium acetate at the desired pH using a centrifugal buffer exchange device (Micro Bio-Spin 6, Bio-Rad). Stock solutions of lipids were prepared from chloroform/methanol solution by evaporating aliquots of known volume in a SpeedVac. After drying, the lipid films were weighed and resuspended to a final concentration of 0.5 mM in 200 mM ammonium acetate and 0.05% LDAO by vertexing.

UptA, sequence (O31823 whole entry): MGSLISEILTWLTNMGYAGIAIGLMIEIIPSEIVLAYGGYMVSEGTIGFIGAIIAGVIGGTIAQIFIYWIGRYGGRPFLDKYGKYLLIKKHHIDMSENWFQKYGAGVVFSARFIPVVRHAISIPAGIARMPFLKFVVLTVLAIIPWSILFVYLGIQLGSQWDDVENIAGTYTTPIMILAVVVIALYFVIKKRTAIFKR

CC(C)=CCC/C(C)=C/CC/C(C)=C/CC/C(C)=C\CC/C(C)=C\CC/C(C)=C\CC/C(C)=C\CC/C(C)=C\CC/C(C)=C\CC/C(C)=C\CC/C(C)=C\COP(=O)(O)O [C55-P, undecaprenyl phosphate]
protein/ligand molar ratio at which relative intensity of first binding event plateaued (2.5 µM UptA, 0 to 40 µM C55-P, pH 8.0, 0.05% LDAO): ~ 4 | binding to UptA by lipid chain length (in words) (4 µM UptA, 10-fold molar excess (40 µM) of lipid, pH 8.0, 200 mM ammonium acetate, 0.05% LDAO): highest intensity of protein/ligand complexes; also recorded: more favorably than C55-PP, C30-P, and C20-P | binding to UptA, equimolar mixture (in words) (equimolar UptA and C55-P, 200 mM ammonium acetate, 0.05% LDAO, pH 8.0): high-affinity binding interactions | Kd (native MS, 2.5 µM UptA, 0 to 40 µM C55-P, 200 mM ammonium acetate, 0.05% LDAO, pH 8.0, Hill equation fit to mean relative intensities of three replicates, 95% CI: C55-P 5.0 to 6.4 µM, C55-PP 9.5 to 32.8 µM, read-out: apparent Kd for the binding of one ligand molecule (1×) to UptA): 5.7 µM | selectivity of UptA for C55-P versus C55-PP (in words) (native MS, 200 mM ammonium acetate, pH 8, 0.05% LDAO): UptA is more selective toward C55-P than C55-PP | pH sensitivity of C55-P binding to UptA (in words) (pH 8.0 vs pH 5.0): environmental pH modulates the interaction of C55-P with UptA; also recorded: less C55-P binding to UptA in the presence of excess H^+ | number of C55-P molecules in complex with UptA dimer (protein/ligand molar ratio 1:4, pH 8.0): up to two | factor by which ligand-bound UptA peaks are more intense at pH 8.0 compared to pH 5.0 (protein/ligand molar ratio 1:4, pH 8.0 vs pH 5.0, 200 mM ammonium acetate, 0.05% LDAO): 3 | C55-P binding to UptA dimer versus monomer (in words) (wild type, protein/ligand molar ratio 1:4, pH 8.0): dimer interacts more favorably with C55-P than the monomer UptA
